Experimental data taken from PubChem BioAssay AID1259407 (Chemical Carcinogenesis Research Information System (CCRIS), 2018).
Active and inactive are the calls of the source. How the calls were made is not given here.

Tested on: CCRIS mutagenicity, Ames/micronucleus/aberration tests
Experiment: CCRIS mutagenicity studies
[1] = Test System: AMES SALMONELLA TYPHIMURIUM, Strain/Indicator: TA98, Metabolic Activation: NONE, Method: PREINCUBATION
[2] = Test System: AMES SALMONELLA TYPHIMURIUM, Strain/Indicator: TA98, Metabolic Activation: RAT, LIVER, S-9, AROCLOR 1254, Method: PREINCUBATION
[3] = Test System: AMES SALMONELLA TYPHIMURIUM, Strain/Indicator: TA100, Metabolic Activation: NONE, Method: PREINCUBATION
[4] = Test System: AMES SALMONELLA TYPHIMURIUM, Strain/Indicator: TA100, Metabolic Activation: RAT, LIVER, S-9, AROCLOR 1254, Method: PREINCUBATION
[5] = Test System: AMES SALMONELLA TYPHIMURIUM, Strain/Indicator: TA1535, Metabolic Activation: NONE, Method: PREINCUBATION
[6] = Test System: AMES SALMONELLA TYPHIMURIUM, Strain/Indicator: TA1535, Metabolic Activation: RAT, LIVER, S-9, AROCLOR 1254, Method: PREINCUBATION
[7] = Test System: AMES SALMONELLA TYPHIMURIUM, Strain/Indicator: TA100, Metabolic Activation: HAMSTER, LIVER, S-9, AROCLOR 1254 (10%), Method: PREINCUBATION
[8] = Test System: AMES SALMONELLA TYPHIMURIUM, Strain/Indicator: TA100, Metabolic Activation: RAT, LIVER, S-9, AROCLOR 1254 (10%), Method: PREINCUBATION

Measured: mutagenic call

O=C/C(Br)=C/c1ccccc1
active: [1] active; positive | Test System: AMES SALMONELLA TYPHIMURIUM, Strain/Indicator: TA98, Metabolic Activation: NONE, Method: PREINCUBATION, LIQUID INCUBATION active; positive | Test System: AMES SALMONELLA TYPHIMURIUM, Strain/Indicator: TA98, Metabolic Activation: NONE, Method: STANDARD PLATE active; positive | [2] active; positive | Test System: AMES SALMONELLA TYPHIMURIUM, Strain/Indicator: TA98, Metabolic Activation: RAT, LIVER, S-9, PCB, Method: STANDARD PLATE active; positive | [3] active; positive | Test System: AMES SALMONELLA TYPHIMURIUM, Strain/Indicator: TA100, Metabolic Activation: NONE, Method: STANDARD PLATE active; positive | Test System: AMES SALMONELLA TYPHIMURIUM, Strain/Indicator: TA100, Metabolic Activation: RAT, LIVER, S-9, PCB, Method: STANDARD PLATE active; positive | [5] active; positive | Test System: AMES SALMONELLA TYPHIMURIUM, Strain/Indicator: TA1535, Metabolic Activation: NONE, Method: PREINCUBATION, LIQUID INCUBATION active; positive | Test System: AMES SALMONELLA TYPHIMURIUM, Strain/Indicator: TA1538, Metabolic Activation: NONE, Method: PREINCUBATION active; positive | Test System: AMES SALMONELLA TYPHIMURIUM, Strain/Indicator: TA1538, Metabolic Activation: NONE, Method: PREINCUBATION, LIQUID INCUBATION active; positive | Test System: AMES SALMONELLA TYPHIMURIUM, Strain/Indicator: TA1538, Metabolic Activation: RAT, LIVER, S-9, AROCLOR 1254, Method: PREINCUBATION active; positive | Test System: AMES SALMONELLA TYPHIMURIUM, Strain/Indicator: TA2637, Metabolic Activation: NONE, Method: STANDARD PLATE active; positive | Test System: AMES SALMONELLA TYPHIMURIUM, Strain/Indicator: TA2637, Metabolic Activation: RAT, LIVER, S-9, PCB, Method: STANDARD PLATE active; positive
inactive: [4] inactive; negative | [6] inactive; negative

C=C1C/C(=C/C)C(=O)O[C@@H]2CCN3CC=C(COC(=O)[C@@]1(O)CO)[C@H]23
active: End Point: IN VITRO CHROMOSOMAL ABERRATIONS, Test System: CHINESE HAMSTER OVARY CELLS, Metabolic Activation: RAT, LIVER, S-9, AROCLOR 1254 active; positive; very high frequencies of aberrations were induced in the 25 cells coun | Test System: AMES SALMONELLA TYPHIMURIUM, Strain/Indicator: TA100, Metabolic Activation: HAMSTER, LIVER, S-9, AROCLOR 1254 (30%), Method: PREINCUBATION active; positive | Test System: AMES SALMONELLA TYPHIMURIUM, Strain/Indicator: TA100, Metabolic Activation: RAT, LIVER, S-9, AROCLOR 1254 (30%), Method: PREINCUBATION active; positive
inactive: End Point: IN VITRO CHROMOSOMAL ABERRATIONS, Test System: CHINESE HAMSTER OVARY CELLS, Metabolic Activation: NONE inactive; negative | Test System: AMES SALMONELLA TYPHIMURIUM, Strain/Indicator: TA97, Metabolic Activation: HAMSTER, LIVER, S-9, AROCLOR 1254 (10 OR 30%), Method: PREINCUBATION inactive; negative | Test System: AMES SALMONELLA TYPHIMURIUM, Strain/Indicator: TA97, Metabolic Activation: NONE, Method: PREINCUBATION inactive; negative | Test System: AMES SALMONELLA TYPHIMURIUM, Strain/Indicator: TA97, Metabolic Activation: RAT, LIVER, S-9, AROCLOR 1254 (10 OR 30%), Method: PREINCUBATION inactive; negative | Test System: AMES SALMONELLA TYPHIMURIUM, Strain/Indicator: TA98, Metabolic Activation: HAMSTER, LIVER, S-9, AROCLOR 1254 (10 OR 30%), Method: PREINCUBATION inactive; negative | [1] inactive; negative | Test System: AMES SALMONELLA TYPHIMURIUM, Strain/Indicator: TA98, Metabolic Activation: RAT, LIVER, S-9, AROCLOR 1254 (10 OR 30%), Method: PREINCUBATION inactive; negative | [7] inactive; negative | [3] inactive; negative | [8] inactive; negative | Test System: AMES SALMONELLA TYPHIMURIUM, Strain/Indicator: TA1535, Metabolic Activation: HAMSTER, LIVER, S-9, AROCLOR 1254 (10 OR 30%), Method: PREINCUBATION inactive; negative | [5] inactive; negative | Test System: AMES SALMONELLA TYPHIMURIUM, Strain/Indicator: TA1535, Metabolic Activation: RAT, LIVER, S-9, AROCLOR 1254 (10 OR 30%), Method: PREINCUBATION inactive; negative

O=[N+]([O-])c1cc([As](=O)(O)O)ccc1O
inactive: End Point: IN VITRO CHROMOSOMAL ABERRATIONS, Test System: CHO CELLS, Metabolic Activation: RAT, LIVER, S-9, AROCLOR 1254 inactive; negative; testing limited by solubility of the chemical | End Point: IN VITRO CHROMOSOMAL ABERRATIONS, Test System: CHO CELLS, Metabolic Activation: RAT, LIVER, S-9, PHENOBARBITAL AND BETA-NAPHTHOFLAVONE inactive; negative | Test System: AMES SALMONELLA TYPHIMURIUM, Strain/Indicator: TA98, Metabolic Activation: HAMSTER, LIVER, S-9, AROCLOR 1254 (10%), Method: PREINCUBATION inactive; negative | Test System: AMES SALMONELLA TYPHIMURIUM, Strain/Indicator: TA98, Metabolic Activation: HAMSTER, LIVER, S-9, AROCLOR 1254, Method: PREINCUBATION inactive; negative | [1] inactive; negative | Test System: AMES SALMONELLA TYPHIMURIUM, Strain/Indicator: TA98, Metabolic Activation: RAT, LIVER, S-9, AROCLOR 1254 (10%), Method: PREINCUBATION inactive; negative | [2] inactive; negative | [7] inactive; negative | Test System: AMES SALMONELLA TYPHIMURIUM, Strain/Indicator: TA100, Metabolic Activation: HAMSTER, LIVER, S-9, AROCLOR 1254, Method: PREINCUBATION inactive; negative | [3] inactive; negative | [8] inactive; negative | [4] inactive; negative | Test System: AMES SALMONELLA TYPHIMURIUM, Strain/Indicator: TA1535, Metabolic Activation: HAMSTER, LIVER, S-9, AROCLOR 1254 (10%), Method: PREINCUBATION inactive; negative | Test System: AMES SALMONELLA TYPHIMURIUM, Strain/Indicator: TA1535, Metabolic Activation: HAMSTER, LIVER, S-9, AROCLOR 1254, Method: PREINCUBATION inactive; negative | [5] inactive; negative | Test System: AMES SALMONELLA TYPHIMURIUM, Strain/Indicator: TA1535, Metabolic Activation: RAT, LIVER, S-9, AROCLOR 1254 (10%), Method: PREINCUBATION inactive; negative | [6] inactive; negative | Test System: AMES SALMONELLA TYPHIMURIUM, Strain/Indicator: TA1537, Metabolic Activation: HAMSTER, LIVER, S-9, AROCLOR 1254 (10%), Method: PREINCUBATION inactive; negative | Test System: AMES SALMONELLA TYPHIMURIUM, Strain/Indicator: TA1537, Metabolic Activation: HAMSTER, LIVER, S-9, AROCLOR 1254, Method: PREINCUBATION inactive; negative | Test System: AMES SALMONELLA TYPHIMURIUM, Strain/Indicator: TA1537, Metabolic Activation: NONE, Method: PREINCUBATION inactive; negative | Test System: AMES SALMONELLA TYPHIMURIUM, Strain/Indicator: TA1537, Metabolic Activation: RAT, LIVER, S-9, AROCLOR 1254 (10%), Method: PREINCUBATION inactive; negative | Test System: AMES SALMONELLA TYPHIMURIUM, Strain/Indicator: TA1537, Metabolic Activation: RAT, LIVER, S-9, AROCLOR 1254, Method: PREINCUBATION inactive; negative
active: Test System: MOUSE LYMPHOMA, Strain/Indicator: L5178Y (TK+/TK-), Metabolic Activation: NONE, Method: SUSPENSION/PLATE active; positive

Nc1c(Cl)cc(-c2cc(Cl)c(N)c(Cl)c2)cc1Cl
active: Test System: UDS HUMAN CELLS, Strain/Indicator: THY INCORP (NON-S-PHASE), Metabolic Activation: RAT, LIVER, S-9, PHENOBARBITAL, Method: LIQUID SCINTILLATION COUNTING active; positive
